Tests used:
[1] = tested on: lamina propria mononuclear cells (LPMC) in the colon tissue; test: Inflammatory cell analysis (FACS of LPMC from colon tissue) in 2% DSS mouse model; type: in vivo; details: Day 7; for numbers of CD11b+, Ly6g+, Ly6c+, CD3+, CD4+, CD8+, CD19+, and MHCII+CD11c+ LPMCs in the colon tissue: FIG. 7A
Experimental: A colon tissue was obtained from a mouse which had been subjected to an experiment by the same method as that described in <Example 2> and put into 30 ml of EDTA and dissociated by being stirred at 37° C. for 30 minutes in order to remove mucus. Next, the tissue was drained with a strainer (70 μm) and washed with warm DPBS. The washing process was repeated a total of 4 to 5 times. An enzyme mixture was prepared by adding 2.35 ml of RPMI 1640 or DMEM, 100 μl of enzyme D, 50 μl of enzyme R, and 12.5 μl of enzyme A to a gentleMACS C tube (Miltenyi Biotec, 130-096-334, Bergisch Gladbach, Germany). The tissue was transferred to the gentleMACS C tube containing the enzyme mixture and dissociated using the gentleMACS Dissociator (Miltenyi Biotec, 130-093-235, Bergisch Gladbach, Germany). Next, the reaction was conducted at 37° C. for 40 minutes in a thermal incubator (Thermo scientific, BB-15, Waltham, Mass., USA) under continuous rotation using a MACSmix Tube Rotator. The digested cells were resuspended in 4 ml of 40% Percoll solution. […]
In order to confirm changes in the number of inflammatory cells, FACS analysis was performed. […] Next, the cells were washed two times with DPBS, resuspended in 200 μl DAPI, then analyzed using a flow cytometer (LSR Fortessa cytometer, Mississauga, Canada), and graphed.
(§1) Specifically, female C57BL/6 mice were fed with a 2% DSS solution together with drinking water for 7 days from Day 0 of the experiment by the same method as that described in <Example 1>, DPBS or 5 mg/kg TDCA was administered to the mice by oral gavage one time a day for 6 days from Day 1 of the experiment, and the body weight and DAI were measured daily. […]
as §1, with “gavage” for “gavage one time a day for 6 days”, “DSS administration or 2 days before DSS administration,” for “the experiment,”

[2] = tested on: inflammasome activity of bone marrow-derived macrophages; test: Inhibition of IL-1β secretion of bone marrow-derived macrophages (LPS then ATP or BzATP); type: cell-based; details: Mus musculus, Macrophage, LPS 10 ng/ml 3 h, TDCA 1 h, ATP 0.5 mM or BzATP 0.3 mM 1 h, FIGS. 10A and 10B
Experimental: Bone marrow was collected from a DPBS-administered mouse which had been subjected to an experiment by the same method as that described in <Example 2>, induced to differentiate into macrophages, then pretreated with LPS (10 ng/ml) for 3 hours so as to be 4×10^4 cells in a 96-well plate, treated with TDCA at various concentrations for 1 hour, then treated with ATP (0.5 mM) or BzATP (0.3 mM) for an additional 1 hour, and cultured, and the amount of IL-1β in the cell culture was measured and analyzed using an ELISA kit (R & D systems, USA) according to the manufacturer's procedure.

TNF-α = test: Pro-inflammatory cytokine ELISA of colon tissue, TNF-α; type: in vivo, mouse; details: for TNF-α in the colon tissue: Day 7, FIG. 7B
Experimental: In order to evaluate the clinical symptoms-improving efficacy in comparison with those by clinical prescription drugs, inflammatory bowel disease was induced by 7-day or repeated administration of 3% or 2.5% DSS solution, and tofacitinib 10 mg/kg, 5-ASA 100 mg/kg or 200 mg/kg, prednisolone 1 mg/kg, and TDCA 2.5 mg/kg were administered one time a day from the start date of DSS administration. From the start date of DSS administration, TDCA 2.5 mg/kg was administered one time a day (QD), two times a day (BID), and three times a day (TID).
A colon was obtained from a mouse which had been subjected to an experiment by the same method as that described in <Example 2>, the peripheral colon was cut into 2 cm in length and the weight was recorded. Next, the colon was chopped into 1 mm pieces and frozen on ice, treated with 500 μl of cold DPBS containing protease inhibitor (Roche, 11836170001, Basel, Switzerland), and homogenized for 10 to 20 seconds using an electric homogenizer (IKA T10 Basic, Wilmington, SE, USA). The homogenate was centrifuged at 4° C. for 10 minutes at 12,000×g to obtain a supernatant. ELISA analysis was performed using the obtained supernatant, IL-6 DuoSet ELISA kit (R & D systems, USA), IL-1β DuoSet ELISA kit (R & D systems, USA), and TNF-α DuoSet ELISA kit (R & D systems, USA) according to the manufacturer's procedure to confirm the production of pro-inflammatory cytokines.
Specifically, female C57BL/6 mice were fed with a 2% DSS solution together with drinking water for 7 days from Day 0 of the experiment by the same method as that described in <Example 1>, DPBS or 5 mg/kg TDCA was administered to the mice by oral gavage from Day 1 of DSS administration or 2 days before DSS administration, and the body weight and DAI were measured daily. As a control, mice freely fed with drinking water were used. Next, the mice were sacrificed on Day 7 of the experiment by the same method as that described in <Example 3>, and the inflammatory cell and proinflammatory cytokine analysis was performed.

[3] = DSS+TDCA group: 5 mg/kg TDCA from Day 1 of DSS
[4] = DSS+preTDCA group: 5 mg/kg TDCA from 2 days before DSS

In the case of `C[C@H](CCC(=O)NCCS(=O)(=O)O)[C@H]1CC[C@H]2[C@@H]3CC[C@@H]4C[C@H](O)CC[C@]4(C)[C@H]3C[C@H](O)[C@]12C` [TDCA, sodium taurodeoxycholic acid], the “numbers of CD11b+, Ly6g+, and Ly6c+ LPMCs in the colon tissue” value ([1]; 2% DSS 7 days, 5 mg/kg TDCA oral gavage, vs DSS+DPBS group, FIG. 3A) is reported as “decreased”, the “numbers of CD11b+, Ly6g+, Ly6c+, CD3+, CD4+, CD8+, CD19+, and MHCII+CD11c+ LPMCs in the colon tissue” value [1, 3] is reported as “decreased” and the “numbers of CD11b+, Ly6g+, Ly6c+, CD3+, CD4+, CD8+, CD19+, and MHCII+CD11c+ LPMCs in the colon tissue” value [1, 4] is reported as “decreased”. The IC50 [2] was 0.06 to 0.09 µM, the “concentration of TNF-α in the colon tissue, compared with clinical prescription drugs” value (TNF-α; 3% DSS 7 days, TDCA 2.5 mg/kg vs tofacitinib 10 mg/kg and 5-ASA 100 mg/kg) was “equivalent to those by tofacitinib 10 mg/kg and 5-ASA 100 mg/kg” and the “TNF-α in the colon tissue” value (TNF-α; [3]) was “decreased”. For the same molecule, the “TNF-α in the colon tissue” value (TNF-α; [4]) was “decreased”.

Reference: US20210386761A1, “COMPOSITION FOR PREVENTING OR TREATING INFLAMMATORY BOWEL DISEASE, CONTAINING, AS ACTIVE INGREDIENT, TAURODEOXYCHOLIC ACID OR PHARMACEUTICALLY ACCEPTABLE SALT THEREOF” (SHAPERON INC., priority 2019, published 2021)
